Measured values from ChEMBL document CHEMBL3856212, “Synthesis, anti-proliferative and genotoxicity studies of 6-chloro-5-(2-substituted-ethyl)-1,3-dihydro-2H-indol-2-ones and 6-chloro-5-(2-chloroethyl)-3-(alkyl/ary-2-ylidene)indolin-2-ones” (Eur J Med Chem, 2016).

Experiments:
[1] = Cytotoxicity against human MCF7 cells assessed as assessed as growth inhibition at 10^-5 M after 48 hrs by SRB assay relative to control; format: functional; details: MCF7, 48 h, read-out: GI
[2] = Cytotoxicity against human LOXIMVI cells assessed as assessed as growth inhibition at 10^-5 M after 48 hrs by SRB assay relative to control; format: functional; details: LOX IMVI, read-out: GI
[3] = Cytotoxicity against human SKOV3 cells assessed as assessed as growth inhibition at 10^-5 M after 48 hrs by SRB assay relative to control; format: functional; details: SK-OV-3, 48 h, read-out: GI
[4] = Cytotoxicity against human MDA-MB-468 cells assessed as assessed as growth inhibition at 10^-5 M after 48 hrs by SRB assay relative to control; format: functional; details: MDA-MB-468, 48 h, read-out: GI
[5] = Cytotoxicity against human MDA-MB-231 cells assessed as assessed as growth inhibition at 10^-5 M after 48 hrs by SRB assay relative to control; format: functional; details: MDA-MB-231, 48 h, read-out: GI
[6] = Cytotoxicity against human RPMI8226 cells assessed as growth inhibition after 48 hrs by SRB assay; format: functional; details: RPMI-8226, 48 h; for CC50: read-out: LD50 (the source's name)
[7] = Cytotoxicity against human SK-MEL-2 cells assessed as growth inhibition after 48 hrs by SRB assay; format: functional; details: SK-MEL-2, 48 h; for CC50: read-out: LD50 (the source's name)
[8] = Cytotoxicity against human LOXIMVI cells assessed as growth inhibition after 48 hrs by SRB assay; format: functional; details: LOX IMVI; for CC50: read-out: LD50 (the source's name)
[9] = Cytotoxicity against human RXF393 cells assessed as growth inhibition after 48 hrs by SRB assay; format: functional; details: RXF 393, 48 h; for CC50: read-out: LD50 (the source's name)
[10] = Induction of apoptosis in mouse EAC cells at 500 uM after 24 hrs by acridine orange dye-based fluorescence microscopy (reference value: 0.66 +/- 0.33%); format: cell-based; details: ehrlich
[11] = Cytotoxicity against human SK-MEL-2 cells assessed as assessed as growth inhibition at 10^-5 M after 48 hrs by SRB assay relative to control; format: functional; details: SK-MEL-2, 48 h, read-out: GI
[12] = Cytotoxicity against human UACC62 cells assessed as assessed as growth inhibition at 10^-5 M after 48 hrs by SRB assay relative to control; format: functional; details: UACC-62, 48 h, read-out: GI
[13] = Cytotoxicity against human ACHN cells assessed as assessed as growth inhibition at 10^-5 M after 48 hrs by SRB assay relative to control; format: functional; details: read-out: GI
[14] = Cytotoxicity against human HT-29 cells assessed as assessed as growth inhibition at 10^-5 M after 48 hrs by SRB assay relative to control; format: functional; details: HT-29, 48 h, read-out: GI
[15] = Cytotoxicity against human SKOV3 cells assessed as growth inhibition after 48 hrs by SRB assay; format: functional; details: SK-OV-3, 48 h; for CC50: read-out: LD50 (the source's name)
[16] = Cytotoxicity against human MDA-MB-231 cells assessed as growth inhibition after 48 hrs by SRB assay; format: functional; details: MDA-MB-231, 48 h; for CC50: read-out: LD50 (the source's name)
[17] = Cytotoxicity against human HOP62 cells assessed as assessed as growth inhibition at 10^-5 M after 48 hrs by SRB assay relative to control; format: functional; details: HOP-62, 48 h, read-out: GI
[18] = Cytotoxicity against human IGROV1 cells assessed as assessed as growth inhibition at 10^-5 M after 48 hrs by SRB assay relative to control; format: functional; details: IGROV-1, 48 h, read-out: GI
[19] = Cytotoxicity against human UACC257 cells assessed as assessed as growth inhibition at 10^-5 M after 48 hrs by SRB assay relative to control; format: functional; details: UACC-257, 48 h, read-out: GI
[20] = Cytotoxicity against human SF295 cells assessed as growth inhibition after 48 hrs by SRB assay; format: functional; details: SF-295, 48 h; for CC50: read-out: LD50 (the source's name)
[21] = Cytotoxicity against human COLO205 cells assessed as growth inhibition after 48 hrs by SRB assay; format: functional; details: COLO 205, 48 h; for CC50: read-out: LD50 (the source's name)
[22] = Cytotoxicity against human SW620 cells assessed as growth inhibition after 48 hrs by SRB assay; format: functional; details: SW-620, 48 h; for CC50: read-out: LD50 (the source's name)
[23] = Cytotoxicity against human SNB19 cells assessed as growth inhibition after 48 hrs by SRB assay; format: functional; details: SNB-19, 48 h; for CC50: read-out: LD50 (the source's name)
[24] = Cytotoxicity against human HL-60(TB) cells assessed as growth inhibition after 48 hrs by SRB assay; format: functional; details: HL-60, 48 h; for CC50: read-out: LD50 (the source's name)
[25] = Cytotoxicity against human PC3 cells assessed as growth inhibition after 48 hrs by SRB assay; format: functional; details: PC-3, 48 h; for CC50: read-out: LD50 (the source's name)
[26] = Cytotoxicity against human SF539 cells assessed as growth inhibition after 48 hrs by SRB assay; format: functional; details: SF-539, 48 h; for CC50: read-out: LD50 (the source's name)
[27] = Cytotoxicity against human SK-MEL-28 cells assessed as assessed as growth inhibition at 10^-5 M after 48 hrs by SRB assay relative to control; format: functional; details: SK-MEL-28, 48 h, read-out: GI
[28] = Cytotoxicity against human OVCAR3 cells assessed as growth inhibition after 48 hrs by SRB assay; format: functional; details: OVCAR-3, 48 h; for CC50: read-out: LD50 (the source's name)
[29] = Induction of apoptosis in mouse EAC cells at 250 uM after 24 hrs by acridine orange dye-based fluorescence microscopy (reference value: 0.66 +/- 0.33%); format: cell-based; details: ehrlich
[30] = Cytotoxicity against human NCI-H23 cells assessed as growth inhibition after 48 hrs by SRB assay; format: functional; details: NCI-H23, 48 h; for CC50: read-out: LD50 (the source's name)
[31] = Cytotoxicity against human NCI-H522 cells assessed as assessed as growth inhibition at 10^-5 M after 48 hrs by SRB assay relative to control; format: functional; details: NCI-H522, 48 h, read-out: GI
[32] = Cytotoxicity against human ACHN cells assessed as growth inhibition after 48 hrs by SRB assay; format: functional; details: for CC50: read-out: LD50 (the source's name)
[33] = Cytotoxicity against human EKVX cells assessed as assessed as growth inhibition at 10^-5 M after 48 hrs by SRB assay relative to control; format: functional; details: read-out: GI

O=C1Cc2cc(CCn3ccnc3)c(Cl)cc2N1
inhibition of growth at 10 µM [1]: 77.1%
inhibition of growth at 10 µM [2]: 26.4%
inhibition of growth at 10 µM [3]: 21.4%
inhibition of growth at 10 µM [4]: 69.2%
inhibition of growth at 10 µM [5]: 54.5%
GI50 [6]: 4610 nM
TGI [6]: > 1000 nM
CC50 [6]: > 1000 nM
GI50 [7]: 5780 nM
TGI [7]: 7360 nM
CC50 [7]: > 1000 nM
GI50 [8]: 8530 nM
TGI [8]: > 1000 nM
CC50 [8]: > 1000 nM
GI50 [9]: 6280 nM
TGI [9]: > 1000 nM
CC50 [9]: > 1000 nM
Activity [10]: 0.53%
inhibition of growth at 10 µM [11]: 19.3%
inhibition of growth at 10 µM [12]: 29.8%
inhibition of growth at 10 µM [13]: 21.7%
inhibition of growth at 10 µM [14]: 1.22%
GI50 [15]: 1810 nM
TGI [15]: > 1000 nM
CC50 [15]: > 1000 nM
GI50 [16]: 5180 nM
TGI [16]: > 1000 nM
CC50 [16]: > 1000 nM
inhibition of growth at 10 µM [17]: 33.1%
inhibition of growth at 10 µM [18]: 13.3%
inhibition of growth at 10 µM [19]: 39.8%
GI50 [20]: 7870 nM
TGI [20]: > 1000 nM
CC50 [20]: > 1000 nM
GI50 [21]: 1510 nM
TGI [21]: > 1000 nM
CC50 [21]: > 1000 nM
GI50 [22]: 5020 nM
TGI [22]: > 1000 nM
CC50 [22]: > 1000 nM
GI50 [23]: 2210 nM
TGI [23]: > 1000 nM
CC50 [23]: > 1000 nM
GI50 [24]: 6320 nM
TGI [24]: > 1000 nM
CC50 [24]: > 1000 nM
GI50 [25]: 3560 nM
TGI [25]: > 1000 nM
CC50 [25]: > 1000 nM
GI50 [26]: 6000 nM
TGI [26]: > 1000 nM
CC50 [26]: > 1000 nM
inhibition of growth at 10 µM [27]: 32.2%
GI50 [28]: 9310 nM
TGI [28]: 7810 nM
CC50 [28]: > 1000 nM
Activity [29]: 0.5%
GI50 [30]: 4080 nM
TGI [30]: > 1000 nM
CC50 [30]: > 1000 nM
inhibition of growth at 10 µM [31]: 55.2%
GI50 [32]: 2030 nM
TGI [32]: > 1000 nM
CC50 [32]: > 1000 nM
inhibition of growth at 10 µM [33]: 72.7%

O=C1Cc2cc(CCN3CCNCC3)c(Cl)cc2N1
inhibition of growth at 10 µM [1]: 74.9%
inhibition of growth at 10 µM [2]: 21.4%
inhibition of growth at 10 µM [3]: 33.2%
inhibition of growth at 10 µM [4]: 89%
inhibition of growth at 10 µM [5]: 64.1%
GI50 [6]: 6030 nM
TGI [6]: > 1000 nM
CC50 [6]: > 1000 nM
GI50 [7]: 1520 nM
TGI [7]: > 1000 nM
CC50 [7]: > 1000 nM
GI50 [8]: 1000 nM
TGI [8]: > 1000 nM
CC50 [8]: > 1000 nM
GI50 [9]: 6890 nM
TGI [9]: > 1000 nM
CC50 [9]: > 1000 nM
Activity [10]: 0.86%
inhibition of growth at 10 µM [11]: 53.9%
inhibition of growth at 10 µM [12]: 44.8%
inhibition of growth at 10 µM [13]: 35.5%
inhibition of growth at 10 µM [14]: 11.9%
GI50 [15]: 1000 nM
TGI [15]: > 1000 nM
CC50 [15]: > 1000 nM
GI50 [16]: 3900 nM
TGI [16]: > 1000 nM
CC50 [16]: > 1000 nM
inhibition of growth at 10 µM [17]: 43.7%
inhibition of growth at 10 µM [18]: 11%
inhibition of growth at 10 µM [19]: 48%
GI50 [20]: 4200 nM
TGI [20]: > 1000 nM
CC50 [20]: > 1000 nM
GI50 [21]: 1970 nM
TGI [21]: > 1000 nM
CC50 [21]: > 1000 nM
GI50 [22]: 4970 nM
TGI [22]: > 1000 nM
CC50 [22]: > 1000 nM
GI50 [23]: 2370 nM
TGI [23]: > 1000 nM
CC50 [23]: > 1000 nM
GI50 [24]: 4300 nM
TGI [24]: > 1000 nM
CC50 [24]: > 1000 nM
GI50 [25]: 9830 nM
TGI [25]: > 1000 nM
CC50 [25]: > 1000 nM
GI50 [26]: 1000 nM
TGI [26]: > 1000 nM
CC50 [26]: > 1000 nM
inhibition of growth at 10 µM [27]: 42.2%
GI50 [28]: 1410 nM
TGI [28]: > 1000 nM
CC50 [28]: > 1000 nM
Activity [29]: 1.06%
GI50 [30]: 4640 nM
TGI [30]: > 1000 nM
CC50 [30]: > 1000 nM
inhibition of growth at 10 µM [31]: 73.6%
GI50 [32]: 1000 nM
TGI [32]: > 1000 nM
CC50 [32]: > 1000 nM
inhibition of growth at 10 µM [33]: 75.2%
